Reference: ChEMBL document CHEMBL1201862, “PubChem BioAssay data set” (2004)
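The compound was tested at five concentrations on cells cultured in 96-well plates, with a 48-hour exposure period. Here, GI50 denotes the concentration required for 50% inhibition of growth.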 Activity calls are given as the source filed them. No stated cut-off is given here; in the data, active = GI50 up to about 1.1 µM and inactive = higher.

Key:
Assay in all cases: inhibition of tumour cell growth, NCI panel, 48 h
HT-29 = system: HT-29
UACC-257 = system: UACC-257
U-251 = system: U-251
TK-10 = system: TK-10
HCT-15 = system: HCT-15
NCI-H522 = system: NCI-H522
UO-31 = system: UO-31
ACHN = system: ACHN
SF-295 = system: SF-295
SN12C = system: SN12C
M14 = system: M14
HCT-116 = system: HCT-116
NCI-H23 = system: NCI-H23
Malme-3M = system: Malme-3M
NCI-H226 = system: NCI-H226
HOP-62 = system: HOP-62
UACC-62 = system: UACC-62
RXF 393 = system: RXF 393

| Structure (SMILES) | GI50 (HT-29) | GI50 (UACC-257) | GI50 (U-251) | GI50 (TK-10) | GI50 (HCT-15) [µM] | GI50 (NCI-H522) | GI50 (UO-31) | GI50 (ACHN) | GI50 (SF-295) | GI50 (SN12C) | GI50 (M14) | GI50 (HCT-116) | GI50 (NCI-H23) | GI50 (Malme-3M) | GI50 (NCI-H226) | GI50 (HOP-62) | GI50 (UACC-62) | GI50 (RXF 393) |
| --- | --- | --- | --- | --- | --- | --- | --- | --- | --- | --- | --- | --- | --- | --- | --- | --- | --- | --- |
| COC(=O)/C=C(C)/C=C/c1c(C)c(C(C)=O)c(C)n1C | > 100 µM (inactive) | > 100 µM (inactive) | > 100 µM (inactive) | > 100 µM (inactive) | > 100 | 51.1 µM (inactive) | 61.1 µM (inactive) | > 100 µM (inactive) | > 100 µM (inactive) | > 100 µM (inactive) | > 100 µM (inactive) | > 100 µM (inactive) | > 100 µM (inactive) | > 100 µM (inactive) | 80.4 µM (inactive) | > 100 µM (inactive) | 96.2 µM (inactive) |  |
| CCOC(=O)C1C=C2O[C@@H]3OC4(CCCCC4)O[C@@H]3C2C2C(=O)CCC(=O)[C@@]12C(=O)OC (some centres not stated) | > 10 µM (inactive) | > 100 µM (inactive) | > 100 µM (inactive) |  | > 100 | > 100 µM (inactive) | > 100 µM (inactive) | > 100 µM (inactive) | > 100 µM (inactive) | > 100 µM (inactive) | > 100 µM (inactive) | > 100 µM (inactive) | > 100 µM (inactive) | > 100 µM (inactive) | > 100 µM (inactive) | > 100 µM (inactive) | > 100 µM (inactive) |  |
| COC(=O)C12C3C4C1C1C2C3C41C(=O)N(C(C)C)C(C)C (configuration not stated) | > 100 µM (inactive) | > 100 µM (inactive) | > 100 µM (inactive) | > 100 µM (inactive) | > 100 | > 100 µM (inactive) | > 100 µM (inactive) | > 100 µM (inactive) | > 100 µM (inactive) | > 100 µM (inactive) | > 100 µM (inactive) | > 100 µM (inactive) | > 100 µM (inactive) | > 100 µM (inactive) | > 100 µM (inactive) | > 100 µM (inactive) | > 100 µM (inactive) |  |
| CC(=O)O[C@H]1C=CC23OC(=O)[C@]1(C)[C@H]2[C@H](C(=O)O)C12CC(=O)[C@@](CO)(CC[C@H]13)C2 | > 100 µM (inactive) | > 100 µM (inactive) | > 100 µM (inactive) | > 100 µM (inactive) | > 100 | > 100 µM (inactive) | > 100 µM (inactive) | > 100 µM (inactive) | > 100 µM (inactive) | > 100 µM (inactive) | > 100 µM (inactive) | > 100 µM (inactive) | > 100 µM (inactive) |  | > 100 µM (inactive) | > 100 µM (inactive) | 75.7 µM (inactive) | > 100 µM (inactive) |
